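Following 48 hours of exposure in 96-well plates, responses at five concentrations were used to interpolate endpoints linearly. GI50 marks 50% less growth.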 Active and inactive are the calls of the source. No stated cut-off is given here; in the data, active = GI50 up to about 1.1 µM and inactive = higher.
How the values were obtained:
Assay in all cases: NCI anticancer screen, dose series, 48 h
[1] = system: 786-0
[2] = system: A549
[3] = system: ACHN
[4] = system: CAKI-1
[5] = system: CCRF-CEM
[6] = system: COLO 205
[7] = system: DLD-1
[8] = system: DMS-114
[9] = system: DMS-273
[10] = system: EKVX
[11] = system: HCC 2998
[12] = system: HCT-116
[13] = system: HCT-15
[14] = system: HL-60
[15] = system: HOP-18
[16] = system: HOP-62
[17] = system: HOP-92
[18] = system: HT-29
[19] = system: IGROV-1
[20] = system: K562
[21] = system: KM-20L2
[22] = system: KM12
[23] = system: LOX IMVI
[24] = system: LXFL 529
[25] = system: M14
[26] = system: M19-MEL
[27] = system: MOLT-4
[28] = system: Malme-3M
[29] = system: NCI-H226
[30] = system: NCI-H23
[31] = system: NCI-H460
[32] = system: NCI-H522
[33] = system: OVCAR-3
[34] = system: OVCAR-4
[35] = system: OVCAR-5
[36] = system: OVCAR-8
[37] = system: RPMI-8226
[38] = system: RXF 393
[39] = system: SF-268
[40] = system: SF-295
[41] = system: SF-539
[42] = system: SK-MEL-28
[43] = system: SK-MEL-2
[44] = system: SK-MEL-5
[45] = system: SK-OV-3
[46] = system: SN12C
[47] = system: SNB-19
[48] = system: SNB-75
[49] = system: SNB-78
[50] = system: SR
[51] = system: SW-620
[52] = system: TK-10
[53] = system: U-251
[54] = system: UACC-257
[55] = system: UACC-62
[56] = system: UO-31
[57] = system: XF498
[58] = system: A498

With `COc1cccc(/C(C=O)=C(\Cl)c2ccc(OC)c(OC)c2)c1` as the molecule, how does the GI50 [1] read?
Its GI50 is 16.1 µM (inactive).

And the GI50 [2]?
The GI50 was 19.5 µM (inactive).

And the GI50 [3]?
Its GI50 is 13.6 µM (inactive).

What about the GI50 [4] of the same molecule?
Its GI50 is 29.2 µM (inactive).

What about the GI50 [5] of the same molecule?
Its GI50 is 7.74 µM (inactive).

What about the GI50 [6] of the same molecule?
Its GI50 is 14.5 µM (inactive).

What about the GI50 [7] of the same molecule?
Its GI50 is 12.9 µM (inactive).

What about the GI50 [8] of the same molecule?
Its GI50 is 15.1 µM (inactive).

What about the GI50 [9] of the same molecule?
The GI50 was 14 µM (inactive).

And the GI50 [10]?
The GI50 was 17.9 µM (inactive).

And the GI50 [11]?
The GI50 was 16.1 µM (inactive).

And the GI50 [12]?
Its GI50 is 10.6 µM (inactive).

And the GI50 [13]?
The GI50 was 12.9 µM.

What about the GI50 [14] of the same molecule?
Its GI50 is 3.97 µM (inactive).

What about the GI50 [15] of the same molecule?
The GI50 was 13.6 µM (inactive).

And the GI50 [16]?
The GI50 was 12.3 µM (inactive).

What about the GI50 [17] of the same molecule?
Its GI50 is 20.6 µM (inactive).

And the GI50 [18]?
Its GI50 is 14.4 µM (inactive).

And the GI50 [19]?
Its GI50 is 21.1 µM (inactive).

And the GI50 [20]?
The GI50 was 13.6 µM (inactive).

What about the GI50 [21] of the same molecule?
The GI50 was 19.7 µM (inactive).

And the GI50 [22]?
The GI50 was 15.7 µM (inactive).

What about the GI50 [23] of the same molecule?
Its GI50 is 15 µM (inactive).

What about the GI50 [24] of the same molecule?
The GI50 was 11.6 µM (inactive).

And the GI50 [25]?
Its GI50 is 17.6 µM (inactive).

And the GI50 [26]?
The GI50 was 11.3 µM (inactive).

And the GI50 [27]?
The GI50 was 13.2 µM (inactive).

What about the GI50 [28] of the same molecule?
Its GI50 is 15.6 µM (inactive).

And the GI50 [29]?
The GI50 was 14 µM (inactive).

What about the GI50 [30] of the same molecule?
Its GI50 is 12.2 µM (inactive).

What about the GI50 [31] of the same molecule?
The GI50 was 13.3 µM (inactive).

What about the GI50 [32] of the same molecule?
The GI50 was 10.3 µM (inactive).

What about the GI50 [33] of the same molecule?
The GI50 was 16.6 µM (inactive).

What about the GI50 [34] of the same molecule?
The GI50 was 16 µM (inactive).

And the GI50 [35]?
Its GI50 is 19 µM (inactive).

What about the GI50 [36] of the same molecule?
Its GI50 is 13.8 µM (inactive).

What about the GI50 [37] of the same molecule?
The GI50 was 11.5 µM (inactive).

What about the GI50 [38] of the same molecule?
The GI50 was 12.3 µM (inactive).

And the GI50 [39]?
Its GI50 is 11.7 µM (inactive).

What about the GI50 [40] of the same molecule?
The GI50 was 15.2 µM (inactive).

What about the GI50 [41] of the same molecule?
Its GI50 is 16.6 µM (inactive).

What about the GI50 [42] of the same molecule?
Its GI50 is 15.1 µM (inactive).

And the GI50 [43]?
Its GI50 is 19.2 µM (inactive).

And the GI50 [44]?
Its GI50 is 12.7 µM (inactive).

What about the GI50 [45] of the same molecule?
Its GI50 is 26.1 µM (inactive).

And the GI50 [46]?
The GI50 was 14.7 µM (inactive).

What about the GI50 [47] of the same molecule?
Its GI50 is 3.94 µM (inactive).

What about the GI50 [48] of the same molecule?
The GI50 was 5.04 µM (inactive).

And the GI50 [49]?
The GI50 was 13 µM (inactive).

What about the GI50 [50] of the same molecule?
Its GI50 is 13.5 µM (inactive).

What about the GI50 [51] of the same molecule?
Its GI50 is 15.9 µM (inactive).

What about the GI50 [52] of the same molecule?
Its GI50 is 28.1 µM (inactive).

What about the GI50 [53] of the same molecule?
The GI50 was 13.9 µM (inactive).

What about the GI50 [54] of the same molecule?
Its GI50 is 14.4 µM (inactive).

And the GI50 [55]?
Its GI50 is 4.63 µM (inactive).

What about the GI50 [56] of the same molecule?
The GI50 was 14.5 µM (inactive).

And the GI50 [57]?
The GI50 was 17.3 µM (inactive).

Which results are given for `Cc1ccc(S(=O)OC2C3CC4CC(C3)CC2C4)cc1` (stereo not drawn)?
GI50 [1]: > 100 µM (inactive); GI50 [58]: > 100 µM (inactive); GI50 [2]: > 100 µM (inactive); GI50 [3]: > 100 µM (inactive); GI50 [4]: > 100 µM (inactive); GI50 [6]: > 100 µM (inactive); GI50 [7]: > 100 µM (inactive); GI50 [8]: > 100 µM (inactive); GI50 [9]: > 100 µM (inactive); GI50 [10]: > 100 µM (inactive); GI50 [11]: > 100 µM (inactive); GI50 [12]: > 100 µM (inactive); GI50 [13]: > 100 µM; GI50 [14]: > 100 µM (inactive); GI50 [15]: > 100 µM (inactive); GI50 [16]: > 100 µM (inactive); GI50 [17]: > 100 µM (inactive); GI50 [18]: > 100 µM (inactive); GI50 [19]: > 100 µM (inactive); GI50 [20]: > 100 µM (inactive); GI50 [21]: > 100 µM (inactive); GI50 [22]: > 100 µM (inactive); GI50 [23]: > 100 µM (inactive); GI50 [24]: > 100 µM (inactive); GI50 [25]: > 100 µM (inactive); GI50 [26]: > 100 µM (inactive); GI50 [27]: > 100 µM (inactive); GI50 [28]: > 100 µM (inactive); GI50 [29]: > 100 µM (inactive); GI50 [30]: > 100 µM (inactive); GI50 [31]: > 100 µM (inactive); GI50 [32]: > 100 µM (inactive); GI50 [33]: > 100 µM (inactive); GI50 [34]: > 100 µM (inactive); GI50 [35]: > 100 µM (inactive); GI50 [36]: > 100 µM (inactive); GI50 [37]: > 100 µM (inactive); GI50 [38]: > 100 µM (inactive); GI50 [39]: > 100 µM (inactive); GI50 [40]: > 100 µM (inactive); GI50 [41]: > 100 µM (inactive); GI50 [42]: > 100 µM (inactive); GI50 [44]: > 100 µM (inactive); GI50 [45]: > 100 µM (inactive); GI50 [46]: > 100 µM (inactive); GI50 [47]: > 100 µM (inactive); GI50 [48]: > 100 µM (inactive); GI50 [49]: > 100 µM (inactive); GI50 [50]: > 100 µM (inactive); GI50 [51]: > 100 µM (inactive); GI50 [52]: > 100 µM (inactive); GI50 [53]: > 100 µM (inactive); GI50 [54]: > 100 µM (inactive); GI50 [55]: > 100 µM (inactive); GI50 [56]: > 100 µM (inactive); GI50 [57]: > 100 µM (inactive)

From ChEMBL document CHEMBL1201862, “PubChem BioAssay data set” (2004)
